Data taken from ChEMBL document CHEMBL1127262, “Novel HIV01 protease inhibitors containing A -hydroxy sulfide isostere” (Bioorg Med Chem Lett, 1994).
≈ marks a conversion by molar mass, not a printed value.

How the values were obtained:
[1] = test system: CCRF-CEM; experiment: Compound was tested for whole cell antiviral activity against CEM cell lines; type: functional, cell-based; settings: Homo sapiens
[2] = target: Human immunodeficiency virus type 1 protease (Human immunodeficiency virus 1, UniProt Q72874); experiment: Compound was tested for inhibitory activity against isolated HIV-1 protease
[3] = test system: MT2; experiment: Compound was tested for whole cell antiviral activity against MT2 cell lines; type: functional, cell-based; settings: Homo sapiens
[4] = target: Human immunodeficiency virus type 1 protease (Human immunodeficiency virus 1) (UniProt Q72874); experiment: Percent inhibition against isolated HIV-1 protease at a concentration of 1 ug/ml

IC50 [1] | IC50 [2] | IC50 [3] | inhibition [4] | SMILES
4.99 µg/mL (≈ 7.78 µM) | 56.1 nM | 4.38 µg/mL (≈ 6.82 µM) |  | CC(C)(C)NC(=O)c1ccccc1SC[C@H](O)[C@H](Cc1ccccc1)NC(=O)[C@H](CC(N)=O)NC(=O)c1ccc2ccccc2n1
 |  |  | 28% | CC(C)(C)NC(=O)c1ccccc1[S+]([O-])C[C@@H](O)[C@H](Cc1ccccc1)NC(=O)[C@H](CC(N)=O)NC(=O)c1ccc2ccccc2n1 (stereo in doubt; 16b)
 | 509 nM |  |  | CC(C)(C)NC(=O)c1ccccc1S(=O)(=O)C[C@@H](O)[C@H](Cc1ccccc1)NC(=O)[C@H](CC(N)=O)NC(=O)c1ccc2ccccc2n1
 | 208 nM |  |  | CC(C)(C)NC(=O)c1ccccc1SC[C@@H](O)[C@H](Cc1ccccc1)NC(=O)[C@H](Cc1c[nH]cn1)NC(=O)c1ccc2ccccc2n1
0.0137 µg/mL (≈ 0.0224 µM) |  | 0.0317 µg/mL (≈ 0.052 µM) |  | CC(C)(C)NC(=O)c1ccccc1C[C@@H](O)[C@H](Cc1ccccc1)NC(=O)[C@H](CC(N)=O)NC(=O)c1ccc2ccccc2n1
 |  |  | 69% | CC(C)(C)NC(=O)c1ccccc1[S+]([O-])C[C@@H](O)[C@H](Cc1ccccc1)NC(=O)[C@H](CC(N)=O)NC(=O)c1ccc2ccccc2n1 (stereo in doubt; 16a)
0.48 µg/mL (≈ 0.748 µM) | 13.4 nM | 0.41 µg/mL (≈ 0.639 µM) |  | CC(C)(C)NC(=O)c1ccccc1SC[C@@H](O)[C@H](Cc1ccccc1)NC(=O)[C@H](CC(N)=O)NC(=O)c1ccc2ccccc2n1
